Patent US20150105252A1, “SUBSTITUTED PYRAZOLES AS HERBICIDES” (E I DU PONT DE NEMOURS AND COMPANY, priority 2013, published 2015)

Assays:
Experiment in all cases: Test C postemergence
[1] = system: pigweed; assay type: in vivo, Amaranthus retroflexus; settings: postemergence
Outline: (§1)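 In this greenhouse assay, seeded soil (loam plus sand) or emerged seedlings in peat-vermiculite medium were treated with formulated compound. Roughly two weeks later (13–15 days), each species was scored visually relative to controls, from 0 for no effect to 100 for complete control.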

[2] = system: galium; assay type: in vivo, Galium aparine
Outline: as §1

[3] = system: wheat; assay type: in vivo, Triticum aestivum; settings: postemergence
Outline: as §1

[4] = system: lambsquarters; assay type: in vivo, Chenopodium album
Outline: as §1

[5] = system: foxtail, giant; assay type: in vivo, Setaria faberii
Outline: as §1

[6] = system: johnsongrass; assay type: in vivo, Sorghum halepense
Outline: as §1

[7] = system: kochia; assay type: in vivo, Kochia scoparia
Outline: as §1

[8] = system: corn; assay type: in vivo, Zea mays
Outline: as §1

[9] = system: soybean; assay type: in vivo, Glycine max; settings: postemergence
Outline: as §1

[10] = system: blackgrass; assay type: in vivo, Alopecurus myosuroides
Outline: as §1

[11] = system: ryegrass, Italian; assay type: in vivo, Lolium multiflorum; settings: postemergence
Outline: as §1

[12] = system: oat, wild; assay type: in vivo, Avena fatua
Outline: as §1

[13] = system: barnyardgrass; assay type: in vivo, Echinochloa crus-galli
Outline: as §1

[14] = system: chickweed; assay type: in vivo, Stellaria media
Outline: as §1

[15] = system: velvetleaf; assay type: in vivo, Abutilon theophrasti; settings: postemergence
Outline: as §1

[16] = system: crabgrass, large; assay type: in vivo, Digitaria sanguinalis
Outline: as §1

[17] = system: ragweed; assay type: in vivo, Ambrosia elation; settings: postemergence
Outline: as §1

[18] = 250 g ai/ha, scale 0 to 100 (0 no effect, 100 complete control)
[19] = 125 g ai/ha, scale 0 to 100, 0 no effect, 100 complete control
[20] = Postemergence, 31 g ai/ha, visually evaluated after 13 to 15 days
[21] = postemergence, 62 g ai/ha, scale 0 to 100
[22] = postemergence, 250 g ai/ha, scale 0 to 100 (0 no effect, 100 complete control)
[23] = postemergence, 125 g ai/ha, scale 0 to 100, 0 no effect, 100 complete control

Which results are given for `CCOc1cc(C(=O)NC(C)C)nn1Cc1ccnc(C(F)(F)F)c1` [Compound 188]?
Pigweed plant response rating ([1]; 62 g ai/ha, scale 0 to 100): 75; Plant response rating, Pigweed [1, 18]: 85; Plant response rating, Pigweed [1, 19]: 80; Plant response rating (scale of 0 to 100 where 0 is no effect and 100 is complete control), Galium [2, 20]: 80; Galium plant response rating [2, 21]: 80; Plant response rating, Galium [2, 22]: 90; Plant response rating, Galium [2, 23]: 90; Plant response rating, Wheat [3, 18]: 40; Wheat plant response rating ([3]; scale 0 to 100): 15; Plant response rating (scale of 0 to 100 where 0 is no effect and 100 is complete control), Lambsquarters [4, 20]: 60; Lambsquarters plant response rating [4, 21]: 75; Plant response rating, Lambsquarters [4, 22]: 95; Plant response rating, Lambsquarters [4, 23]: 90; Plant response rating (scale of 0 to 100 where 0 is no effect and 100 is complete control), Foxtail, Giant [5, 20]: 5; Foxtail, Giant plant response rating [5, 21]: 40; Plant response rating, Foxtail, Giant [5, 22]: 90; Plant response rating, Foxtail, Giant [5, 23]: 60; Plant response rating (scale of 0 to 100 where 0 is no effect and 100 is complete control), Johnsongrass [6, 20]: 0; Johnsongrass plant response rating [6, 21]: 0; Plant response rating, Johnsongrass [6, 22]: 65; Plant response rating, Johnsongrass [6, 23]: 50; Plant response rating (scale of 0 to 100 where 0 is no effect and 100 is complete control), Kochia [7, 20]: 90; Kochia plant response rating [7, 21]: 90; Plant response rating, Kochia [7, 22]: 90; Plant response rating, Kochia [7, 23]: 90; Plant response rating (scale of 0 to 100 where 0 is no effect and 100 is complete control), Corn [8, 20]: 5; Corn plant response rating [8, 21]: 55; Plant response rating, Corn [8, 22]: 60; Plant response rating, Corn [8, 23]: 20; Plant response rating, Soybean [9, 18]: 98; Soybean plant response rating [9, 19]: 95; Plant response rating (scale of 0 to 100 where 0 is no effect and 100 is complete control), Blackgrass [10, 20]: 5; Blackgrass plant response rating [10, 21]: 5; Plant response rating, Blackgrass [10, 22]: 70; Plant response rating, Blackgrass [10, 23]: 40; Plant response rating, Ryegrass, Italian [11, 18]: 35; Plant response rating, Ryegrass, Italian [11, 19]: 20; Plant response rating (scale of 0 to 100 where 0 is no effect and 100 is complete control), Oat, Wild [12, 20]: 15; Oat, Wild plant response rating [12, 21]: 10; Plant response rating, Oat, Wild [12, 22]: 85; Plant response rating, Oat, Wild [12, 23]: 60; Plant response rating (scale of 0 to 100 where 0 is no effect and 100 is complete control), Barnyardgrass [13, 20]: 5; Barnyardgrass plant response rating [13, 21]: 15; Plant response rating, Barnyardgrass [13, 22]: 65; Plant response rating, Barnyardgrass [13, 23]: 30; Plant response rating (scale of 0 to 100 where 0 is no effect and 100 is complete control), Chickweed [14, 20]: 70; Chickweed plant response rating [14, 21]: 85; Plant response rating, Chickweed [14, 22]: 98; Plant response rating, Chickweed [14, 23]: 80; Plant response rating, Velvetleaf [15, 18]: 80; Velvetleaf plant response rating ([15]; scale 0 to 100): 60; Plant response rating (scale of 0 to 100 where 0 is no effect and 100 is complete control), Crabgrass, Large [16, 20]: 5; Crabgrass, Large plant response rating [16, 21]: 55; Plant response rating, Crabgrass, Large [16, 22]: 95; Plant response rating, Crabgrass, Large [16, 23]: 70; Plant response rating, Ragweed [17, 18]: 90; Plant response rating, Ragweed [17, 19]: 85
